Data reported in PubChem BioAssay AID330 (DTP/NCI, 2004).
Where “and” joins values, the source holds several entries; their conditions need not be identical. Identical values can stand only once. Toxic doses and inconclusive results are not listed.

Tested on: P388 leukemia ip, CD2F1 mice, survival T/C
Assay: NCI In Vivo Anticancer Drug Screen. Data for tumor model P388 Leukemia (intraperitoneal) in CD2F1 (CDF1) mice
Conditions: endpoint: median survival time, higher = longer survival
In short: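 Mice carrying the transplanted tumor received test compound or vehicle. Survival was recorded in each group, and the value is the treated-group measurement divided by that of the vehicle-treated control group.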

`CN(Cc1cnc2nc(N)nc(N)c2n1)c1ccc(C(=O)N[C@@H](CCC(=O)O)C(=O)O)cc1` was tested, and the T/C (dose: 0.09 mg/kg/injection, schedule: Q01DX009 (ip), vehicle: sodium bicarbonate) was 120 % of control, the T/C (dose: 0.18 mg/kg/injection, schedule: Q01DX009 (ip), vehicle: sodium bicarbonate) was 113 % of control and the T/C (dose: 0.25 mg/kg/injection, schedule: Q01DX005 (ip), vehicle: sodium bicarbonate) was 117 % of control. For the same compound, the T/C (dose: 0.25 mg/kg/injection, schedule: Q01DX009 (ip), vehicle: sodium bicarbonate) was 150 % of control and 154 % of control, the T/C (dose: 0.32 mg/kg/injection, schedule: Q01DX009 (ip), vehicle: sodium bicarbonate) was 166 % of control and 168 % of control and the T/C (dose: 0.38 mg/kg/injection, schedule: Q01DX009 (ip), vehicle: other) was 163 % of control. For the same compound, the T/C (dose: 0.38 mg/kg/injection, schedule: Q01DX009 (ip), vehicle: saline) was 169 % of control, the T/C (dose: 0.38 mg/kg/injection, schedule: Q## X009 (ip), vehicle: sodium bicarbonate) was 154 % of control and the T/C (dose: 0.48 mg/kg/injection, schedule: Q01DX009 (ip), vehicle: sodium bicarbonate) was 168 % of control. For the same compound, the T/C (dose: 0.5 mg/kg/injection, schedule: Q01DX009 (ip), vehicle: sodium bicarbonate) was 176 % of control and 177 % of control, the T/C (dose: 0.54 mg/kg/injection, schedule: Q01DX009 (ip), vehicle: sodium bicarbonate) was 175 % of control and 180 % of control and the T/C (dose: 0.6 mg/kg/injection, schedule: Q01DX009 (ip), vehicle: clinical formulation) was 164 % of control. The T/C (dose: 0.62 mg/kg/injection, schedule: Q01DX005 (ip), vehicle: sodium bicarbonate) was 158 % of control, the T/C (dose: 0.73 mg/kg/injection, schedule: Q01DX009 (ip), vehicle: sodium bicarbonate) was 184 % of control and the T/C (dose: 0.75 mg/kg/injection, schedule: Q01DX005 (ip), vehicle: sodium bicarbonate) was 166 % of control. For the same compound, the T/C (dose: 0.75 mg/kg/injection, schedule: Q01DX009 (ip), vehicle: other) was 195 % of control, the T/C (dose: 0.75 mg/kg/injection, schedule: Q01DX009 (ip), vehicle: saline) was 200 % of control and the T/C (dose: 0.75 mg/kg/injection, schedule: Q01DX015 (ip), vehicle: sodium bicarbonate) was 186 % of control. For the same compound, the T/C (dose: 0.75 mg/kg/injection, schedule: Q## X009 (ip), vehicle: sodium bicarbonate) was 190 % of control, the T/C (dose: 0.8 mg/kg/injection, schedule: Q01DX009 (ip), vehicle: clinical formulation) was 164 % of control and the T/C (dose: 1.0 mg/kg/injection, schedule: Q01DX009 (ip), vehicle: clinical formulation) was 180 % of control. For the same compound, the T/C (dose: 1.0 mg/kg/injection, schedule: Q01DX009 (ip), vehicle: sodium bicarbonate) was 177 % of control and 194 % of control and 195 % of control, the T/C (dose: 1.0 mg/kg/injection, schedule: Q02DX005 (ip), vehicle: sodium bicarbonate) was 160 % of control and the T/C (dose: 1.1 mg/kg/injection, schedule: Q01DX009 (ip), vehicle: sodium bicarbonate) was 192 % of control. For the same compound, the T/C (dose: 1.2 mg/kg/injection, schedule: Q01DX009 (ip), vehicle: clinical formulation) was 189 % of control, the T/C (dose: 1.25 mg/kg/injection, schedule: Q01DX005 (ip), vehicle: sodium bicarbonate) was 182 % of control and the T/C (dose: 1.3 mg/kg/injection, schedule: Q01DX009 (ip), vehicle: sodium bicarbonate) was 196 % of control. The T/C (dose: 1.5 mg/kg/injection, schedule: Q01DX005 (ip), vehicle: sodium bicarbonate) was 182 % of control, the T/C (dose: 1.7 mg/kg/injection, schedule: Q01DX009 (ip), vehicle: sodium bicarbonate) was 106 % of control and the T/C (dose: 1.75 mg/kg/injection, schedule: Q01DX005 (ip), vehicle: sodium bicarbonate) was 182 % of control. For the same compound, the T/C (dose: 2.0 mg/kg/injection, schedule: Q01DX005 (iv), vehicle: sodium bicarbonate) was 161 % of control, the T/C (dose: 2.0 mg/kg/injection, schedule: Q02DX005 (ip), vehicle: saline) was 105 % of control and the T/C (dose: 2.0 mg/kg/injection, schedule: Q02DX005 (ip), vehicle: sodium bicarbonate) was 163 % of control and 192 % of control. For the same compound, the T/C (dose: 2.3 mg/kg/injection, schedule: Q04DX003 (ip), vehicle: saline) was 181 % of control, the T/C (dose: 2.5 mg/kg/injection, schedule: Q01DX005 (ip), vehicle: sodium bicarbonate) was 187 % of control and the T/C (dose: 2.5 mg/kg/injection, schedule: Q01DX006 (ip), vehicle: sodium bicarbonate) was 179 % of control. The T/C (dose: 2.5 mg/kg/injection, schedule: Q04DX003 (ip), vehicle: sodium bicarbonate) was 183 % of control, the T/C (dose: 3.0 mg/kg/injection, schedule: Q01DX006 (ip), vehicle: sodium bicarbonate) was 170 % of control and the T/C (dose: 3.0 mg/kg/injection, schedule: Q01DX015 (ip), vehicle: sodium bicarbonate) was 110 % of control. The T/C (dose: 3.0 mg/kg/injection, schedule: Q02DX005 (ip), vehicle: saline) was 105 % of control, the T/C (dose: 3.0 mg/kg/injection, schedule: Q02DX005 (ip), vehicle: sodium bicarbonate) was 182 % of control and the T/C (dose: 3.0 mg/kg/injection, schedule: Q## X009 (ip), vehicle: sodium bicarbonate) was 118 % of control. The T/C (dose: 3.13 mg/kg/injection, schedule: Q01DX001 (ip), vehicle: sodium bicarbonate) was 122 % of control, the T/C (dose: 3.5 mg/kg/injection, schedule: Q01DX006 (ip), vehicle: sodium bicarbonate) was 187 % of control and the T/C (dose: 4.0 mg/kg/injection, schedule: Q01DX005 (iv), vehicle: sodium bicarbonate) was 190 % of control. The T/C (dose: 4.32 mg/kg/injection, schedule: Q04DX003 (ip), vehicle: sodium bicarbonate) was 171 % of control, the T/C (dose: 4.5 mg/kg/injection, schedule: Q04DX003 (ip), vehicle: sodium bicarbonate) was 174 % of control and the T/C (dose: 4.6 mg/kg/injection, schedule: Q04DX003 (ip), vehicle: saline) was 204 % of control. For the same compound, the T/C (dose: 5.0 mg/kg/injection, schedule: Q04DX003 (ip), vehicle: sodium bicarbonate) was 189 % of control, the T/C (dose: 5.18 mg/kg/injection, schedule: Q04DX003 (ip), vehicle: sodium bicarbonate) was 180 % of control and the T/C (dose: 6.48 mg/kg/injection, schedule: Q04DX003 (ip), vehicle: sodium bicarbonate) was 182 % of control. The T/C (dose: 7.2 mg/kg/injection, schedule: Q04DX003 (ip), vehicle: sodium bicarbonate) was 199 % of control, the T/C (dose: 7.78 mg/kg/injection, schedule: Q04DX002 (ip), vehicle: sodium bicarbonate) was 171 % of control and the T/C (dose: 8.64 mg/kg/injection, schedule: Q04DX003 (ip), vehicle: sodium bicarbonate) was 201 % of control. For the same compound, the T/C (dose: 9.0 mg/kg/injection, schedule: Q04DX003 (ip), vehicle: sodium bicarbonate) was 116 % of control, the T/C (dose: 9.0 mg/kg/injection, schedule: Q04DX003 (iv), vehicle: sodium bicarbonate) was 174 % of control and the T/C (dose: 9.72 mg/kg/injection, schedule: Q04DX002 (ip), vehicle: sodium bicarbonate) was 175 % of control. The T/C (dose: 10.0 mg/kg/injection, schedule: Q04DX004 (ip), vehicle: sodium bicarbonate) was 189 % of control, the T/C (dose: 10.8 mg/kg/injection, schedule: Q04DX003 (ip), vehicle: sodium bicarbonate) was 202 % of control and the T/C (dose: 13.0 mg/kg/injection, schedule: Q04DX002 (ip), vehicle: sodium bicarbonate) was 165 % of control. The T/C (dose: 14.4 mg/kg/injection, schedule: Q04DX003 (ip), vehicle: sodium bicarbonate) was 181 % of control, the T/C (dose: 15.0 mg/kg/injection, schedule: Q04DX003 (ip), vehicle: sodium bicarbonate) was 117 % of control and the T/C (dose: 16.2 mg/kg/injection, schedule: Q04DX002 (ip), vehicle: sodium bicarbonate) was 195 % of control. The T/C (dose: 18.0 mg/kg/injection, schedule: Q01DX001 (ip), vehicle: sodium bicarbonate) was 173 % of control, the T/C (dose: 18.0 mg/kg/injection, schedule: Q04DX003 (ip), vehicle: sodium bicarbonate) was 114 % of control and the T/C (dose: 18.0 mg/kg/injection, schedule: Q04DX003 (iv), vehicle: sodium bicarbonate) was 194 % of control. The T/C (dose: 18.4 mg/kg/injection, schedule: Q04DX003 (ip), vehicle: saline) was 177 % of control, the T/C (dose: 20.0 mg/kg/injection, schedule: Q04DX004 (ip), vehicle: sodium bicarbonate) was 189 % of control and the T/C (dose: 21.6 mg/kg/injection, schedule: Q04DX002 (ip), vehicle: sodium bicarbonate) was 191 % of control. The T/C (dose: 25.0 mg/kg/injection, schedule: Q04DX002 (ip), vehicle: sodium bicarbonate) was 115 % of control, the T/C (dose: 25.0 mg/kg/injection, schedule: Q04DX004 (ip), vehicle: sodium bicarbonate) was 180 % of control and the T/C (dose: 27.0 mg/kg/injection, schedule: Q04DX002 (ip), vehicle: sodium bicarbonate) was 201 % of control. For the same compound, the T/C (dose: 33.3 mg/kg/injection, schedule: Q01DX001 (ip), vehicle: sodium bicarbonate) was 109 % of control, the T/C (dose: 36.0 mg/kg/injection, schedule: Q01DX001 (ip), vehicle: sodium bicarbonate) was 150 % of control and the T/C (dose: 36.0 mg/kg/injection, schedule: Q01DX001 (iv), vehicle: sodium bicarbonate) was 156 % of control. The T/C (dose: 36.0 mg/kg/injection, schedule: Q04DX003 (iv), vehicle: sodium bicarbonate) was 124 % of control, the T/C (dose: 40.0 mg/kg/injection, schedule: Q01DX001 (ip), vehicle: sodium bicarbonate) was 150 % of control and the T/C (dose: 42.0 mg/kg/injection, schedule: Q04DX002 (ip), vehicle: sodium bicarbonate) was 105 % of control. For the same compound, the T/C (dose: 45.0 mg/kg/injection, schedule: Q04DX002 (ip), vehicle: sodium bicarbonate) was 200 % of control, the T/C (dose: 50.0 mg/kg/injection, schedule: Q04DX003 (ip), vehicle: sodium bicarbonate) was 111 % of control and the T/C (dose: 72.0 mg/kg/injection, schedule: Q01DX001 (iv), vehicle: sodium bicarbonate) was 161 % of control. The T/C (dose: 100.0 mg/kg/injection, schedule: Q01DX001 (ip), vehicle: sodium bicarbonate) was 158 % of control and 161 % of control, the T/C (dose: 125.0 mg/kg/injection, schedule: Q01DX001 (ip), vehicle: sodium bicarbonate) was 166 % of control and the T/C (dose: 150.0 mg/kg/injection, schedule: Q01DX001 (ip), vehicle: sodium bicarbonate) was 158 % of control. For the same compound, the T/C (dose: 200.0 mg/kg/injection, schedule: Q01DX001 (ip), vehicle: sodium bicarbonate) was 170 % of control and the T/C (dose: 400.0 mg/kg/injection, schedule: Q01DX001 (ip), vehicle: sodium bicarbonate) was 181 % of control.
